Source: ChEMBL document CHEMBL1201862, “PubChem BioAssay data set” (2004)
“And” between values parts separate entries of the source, which are not always exact repeats. Equal values may be shown once.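 Dose response: 5 concentrations. Exposure: 48 h. Format: 96-well plates. Endpoint: linear interpolation; highest concentration if not reached. At the GI50, growth is halved.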 The source made the active and inactive calls. Rule as the data show it: active = GI50 up to about 1.1 µM and inactive = higher.

Experiments:
Experiment in all cases: growth of human tumour cells (NCI), 48 h
[1] = tested on: HCC 2998
[2] = tested on: OVCAR-5
[3] = tested on: CCRF-CEM
[4] = tested on: M14
[5] = tested on: OVCAR-8
[6] = tested on: SF-539
[7] = tested on: RXF 393
[8] = tested on: UO-31
[9] = tested on: U-251
[10] = tested on: SK-MEL-28
[11] = tested on: K562
[12] = tested on: A549
[13] = tested on: IGROV-1
[14] = tested on: HOP-62
[15] = tested on: SN12C
[16] = tested on: SNB-75
[17] = tested on: T47D
[18] = tested on: DU-145
[19] = tested on: SK-MEL-5
[20] = tested on: MDA-MB-231
[21] = tested on: NCI/ADR-RES
[22] = tested on: RPMI-8226
[23] = tested on: MOLT-4
[24] = tested on: KM12
[25] = tested on: A498
[26] = tested on: NCI-H23
[27] = tested on: CAKI-1
[28] = tested on: LOX IMVI
[29] = tested on: COLO 205
[30] = tested on: UACC-257
[31] = tested on: UACC-62
[32] = tested on: SF-295
[33] = tested on: ACHN
[34] = tested on: SNB-19
[35] = tested on: OVCAR-3
[36] = tested on: BT-549
[37] = tested on: NCI-H226
[38] = tested on: SR
[39] = tested on: MCF7
[40] = tested on: HCT-15
[41] = tested on: HOP-92
[42] = tested on: 786-0
[43] = tested on: HCT-116
[44] = tested on: MDA-MB-435
[45] = tested on: PC-3
[46] = tested on: EKVX
[47] = tested on: NCI-H460
[48] = tested on: MDA-N
[49] = tested on: SW-620
[50] = tested on: SK-MEL-2
[51] = tested on: SF-268
[52] = tested on: HT-29
[53] = tested on: OVCAR-4
[54] = tested on: Hs-578T
[55] = tested on: TK-10

Measured: GI50

C[C@]12CC[C@H]3[C@@H](CCC4=CC(=O)C=C[C@@]43O)[C@@H]1CCC2=O
56 µM: [40]
inactive: [1] > 100 µM | [2] > 100 µM | [3] 26.4 µM | [4] > 100 µM | [5] 81.1 µM | [6] > 100 µM | [7] > 100 µM | [8] > 100 µM | [9] > 100 µM | [10] > 100 µM | [11] 83.9 µM | [12] 62.1 µM | [13] 94 µM | [14] > 100 µM | [15] > 100 µM | [16] > 100 µM | [17] > 100 µM | [18] > 100 µM | [19] 82 µM | [20] > 100 µM | [21] 78.3 µM | [22] > 100 µM | [23] 27.2 µM | [24] > 100 µM | [25] > 100 µM | [26] 51.5 µM | [27] > 100 µM | [28] 33.6 µM | [29] > 100 µM | [30] > 100 µM | [31] 60.1 µM | [32] > 100 µM | [33] > 100 µM | [34] > 100 µM | [35] > 100 µM | [36] 55.2 µM | [37] 69.8 µM | [38] 74.3 µM | [39] > 100 µM | [41] 27.9 µM | [42] > 100 µM | [43] > 100 µM | [44] > 100 µM | [45] > 100 µM | [46] 70.8 µM | [47] > 100 µM | [48] > 100 µM | [49] > 100 µM | [50] 77.4 µM

CCCCCCCCCCCCCCCCOP(=O)(O)OP(=O)(O)OCC1OC(n2ccc(N)nc2=O)C(O)C1O (stereo not given)
> 100 µM and 98.2 µM: [40]
inactive: [2] > 100 µM and > 61.9 µM | [6] > 91 µM | [7] 58.2 µM | [9] > 100 µM and > 76.7 µM | [10] > 100 µM | [13] > 100 µM and > 89.7 µM | [17] > 74 µM | [18] > 100 µM and 58.2 µM | [19] > 100 µM and 53 µM | [20] > 76.2 µM | [22] > 100 µM | [51] > 100 µM | [24] > 100 µM | [29] > 100 µM | [52] 51.3 µM | [30] > 100 µM and > 96.6 µM | [35] > 100 µM | [36] > 93.3 µM | [37] 89.3 µM | [41] > 100 µM and 57.1 µM | [53] > 100 µM | [44] > 100 µM | [45] 54.6 µM | [46] > 100 µM | [54] > 91.6 µM | [48] > 100 µM | [55] > 100 µM | [49] > 100 µM and > 95.7 µM | [50] > 100 µM
